Measured values as given in ChEMBL document CHEMBL4742392, “Tetrahydropyridopyrazine modulators of GPR6” (2019).

What was measured:
[1] = Cardiotoxicity in Beagle dog at 30 to 300 mg/kg, po by telemetry analysis; type: toxicity, organism-based, Canis lupus familiaris; settings: in vivo, dose 30-300 mg/kg
[2] = species: Rattus norvegicus; assay: Neuroprotective actvity against 6-OHDA-induced rat Parkinson's disease model assessed as improved locomotory actvity by open-field test; type: functional, organism-based; settings: dose 5-10 mg/kg

For `CC(=O)N1CCc2nc(N3CCC(Oc4ccc(F)cc4F)CC3)c(N[C@@H]3CCOC3)nc2C1`, the Activity [1] was “Non-Toxic” and the Activity [2] was “Dose-dependent effect”.
